Consider 1 compound from EPA's ToxValDB 9.5 (doi:10.2903/j.efsa.2009.194r).

SMILES strings stand for the structures.

The test system of one data set is Pimephales promelas. Conditions: chronic/long-term; duration: 36 days; growth.
A further data set deals with Rattus norvegicus. Conditions: for NOAEL: hematological.
Another data set concerns Typhlodromus pyri. Conditions: chronic/long-term.
The next data set deals with Canidae. Conditions: chronic; duration: 1 years; oral; Dog Other; hematological.
The test system of a further data set is Apis mellifera. Conditions: acute; duration: 48 hours; dermal; mortality.
Another data set has as its system Aphidius rhopalosiphi. Conditions: chronic/long-term.
Another data set relates to Daphnia magna. Conditions: chronic/long-term; duration: 21 days; reproduction.
The test system of the next data set is Lepomis macrochirus. Conditions: acute; duration: 96 hours; mortality.
A further data set deals with Colinus virginianus. Conditions: for LD50: acute, oral, mortality.
Another data set relates to Tagia sp. Conditions: acute; duration: 14 days; mortality.

Usually NOAEL stands for the highest tested level that showed no adverse finding.

On to `O=C(NC(=O)c1ccccc1Cl)Nc1ccc(OC(F)(F)F)cc1` [Triflumuron], for which the NOEC in the data set with Pimephales promelas is no less than 0.0228 mg/L; with Rattus norvegicus (chronic), 142 mg/kg-day; in the data set on Daphnia magna, 3.2e-05 mg/L; in the data set on Colinus virginianus (reproduction developmental), 1.65 mg/kg-day. In addition, the LD50 is greater than 5000 mg/kg-day in the data set with Rattus norvegicus (acute, oral, mortality); greater than 200 µg/piece in the data set with Apis mellifera; greater than 805 mg/kg-day in the data set on Colinus virginianus (diet); 561 mg/kg-day with Colinus virginianus. Moreover, the NOAEL in the data set on Rattus norvegicus (chronic, duration: 2 years) worked out at 0.82 mg/kg-day; with Rattus norvegicus (subchronic, duration: 90 days, oral) it was 3.6 mg/kg-day; in the data set on Canidae it was 1.42 mg/kg-day. Besides, the LEL in the data set on Typhlodromus pyri (duration: 7 days, mortality) was 384 g/ha; in the data set on Typhlodromus pyri (reproduction) it was 384 g/ha; with Aphidius rhopalosiphi (mortality), 300 g/ha; in the data set on Aphidius rhopalosiphi (reproduction), 300 g/ha. Moreover, the LC50 is greater than 0.0208 µg/mL in the data set on Lepomis macrochirus and greater than 500 mg/kg with Tagia sp..
